For 1 molecule, deltaT, Activity and Ki results are on record in ChEMBL document CHEMBL3352178, “Antidepressant- and anxiolytic-like activity of 7-phenylpiperazinylalkyl-1,3-dimethyl-purine-2,6-dione derivatives with diversified 5-HT₁A receptor functional profile” (Bioorg Med Chem, 2015).

Structures are written as SMILES. Calls of active or inactive are those of the source. No cut-off for these calls is given here.

The subject of series [1] is Mus musculus. Nature of the series: Induction of hypothermia in mouse assessed as change in body temperature at 5 mg/kg, ip administered 30 mins before test and measured 30 mins post dose. It counts as functional, organism-based. The arrangement: dose 5 mg/kg.
The test system of series [2] is Mus musculus. Nature of the series: Induction of hypothermia in mouse assessed as change in body temperature at 10 mg/kg, ip administered 30 mins before test and measured 60 mins post dose in presence of 0.3 mg/kg, sc 5HT1A receptor antagonist WAY 100635. Type of series: functional, organism-based.
In series [3] the test system is Rattus norvegicus. Nature of the series: Inhibition of 8-OH-DPAT-induced lower lip retraction in rat assessed as lower lip retraction scores at 5 mg/kg, ip dosed 45 mins before 8-OH-DPAT. Particulars: route intraperitoneal. Type of series: functional.
The test system of series [4] is Mus musculus. Nature of the series: Induction of hypothermia in mouse assessed as change in body temperature at 5 mg/kg, ip administered 30 mins before test and measured 120 mins post dose. It counts as functional, organism-based. The arrangement: dose 5 mg/kg.
The target of series [5] is 5-hydroxytryptamine receptor 2A (Rattus norvegicus, UniProt P14842). Nature of the series: Displacement of [3H]-ketanserin from 5-HT2AR in rat cortex. (In a radioligand displacement assay an active substance lowers the binding of a labelled ligand.)
5-hydroxytryptamine receptor 2A, sequence (P14842 whole entry): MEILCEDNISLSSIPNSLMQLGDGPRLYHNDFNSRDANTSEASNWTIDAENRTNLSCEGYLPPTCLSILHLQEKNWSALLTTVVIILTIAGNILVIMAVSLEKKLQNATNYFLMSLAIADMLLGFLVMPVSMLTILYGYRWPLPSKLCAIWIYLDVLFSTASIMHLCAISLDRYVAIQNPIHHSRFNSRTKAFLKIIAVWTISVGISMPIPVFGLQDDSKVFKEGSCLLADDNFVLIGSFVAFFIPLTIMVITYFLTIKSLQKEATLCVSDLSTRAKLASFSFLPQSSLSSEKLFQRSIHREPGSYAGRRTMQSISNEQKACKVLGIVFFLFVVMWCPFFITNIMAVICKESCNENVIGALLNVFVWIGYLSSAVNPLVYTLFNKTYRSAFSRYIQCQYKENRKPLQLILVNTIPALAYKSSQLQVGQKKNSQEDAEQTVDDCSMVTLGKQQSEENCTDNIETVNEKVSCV
Series [6] deals with Mus musculus. Nature of the series: Antidepressant-like activity in mouse assessed as reduction in immobility time at 1.25 mg/kg, ip dosed 60 mins before test by forced swim test. Type of series: functional. The arrangement: scale not given: the % may be the effect or the level left. The conditions noted are these: route intraperitoneal.
The test system of series [7] is Mus musculus. Nature of the series: Induction of hypothermia in mouse assessed as change in body temperature at 10 mg/kg, ip administered 30 mins before test and measured 120 mins post dose. Type of series: functional, organism-based. The arrangement: dose 10 mg/kg.
Series [8] relates to Rattus norvegicus. Nature of the series: Induction of lower lip retraction in rat assessed as lower lip retraction scores at 5 mg/kg, ip dosed 15 mins before test. The conditions noted are these: route intraperitoneal. It counts as functional.
The target in the next series is D(2) dopamine receptor (Rattus norvegicus, UniProt P61169). Nature of the series: Displacement of [3H]-spiperone from dopamine D2 receptor in rat striatum.
D(2) dopamine receptor, sequence (P61169 whole entry): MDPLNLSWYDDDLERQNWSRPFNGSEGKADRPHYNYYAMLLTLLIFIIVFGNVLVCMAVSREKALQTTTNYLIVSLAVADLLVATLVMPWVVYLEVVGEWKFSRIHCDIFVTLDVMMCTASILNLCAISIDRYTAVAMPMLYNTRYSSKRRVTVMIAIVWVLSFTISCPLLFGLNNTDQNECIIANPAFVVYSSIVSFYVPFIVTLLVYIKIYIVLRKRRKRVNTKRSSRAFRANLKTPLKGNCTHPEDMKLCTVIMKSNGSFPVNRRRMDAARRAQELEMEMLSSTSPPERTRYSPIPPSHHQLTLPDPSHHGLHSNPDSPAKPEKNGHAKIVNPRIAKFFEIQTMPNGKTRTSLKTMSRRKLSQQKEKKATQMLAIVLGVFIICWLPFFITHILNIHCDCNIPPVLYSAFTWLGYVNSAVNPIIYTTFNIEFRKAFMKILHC
Series [9] relates to Mus musculus. Nature of the series: Antidepressant-like activity in mouse assessed as reduction in immobility time at 0.625 mg/kg, ip dosed 60 mins before test by forced swim test. Type of series: functional. Details: scale not given: the % may be the effect or the level left. The conditions noted are these: route intraperitoneal.
For series [10], the target named is T1, 5-hydroxytryptamine receptor 1A (Rattus norvegicus, UniProt P19327).
T1 sequence (P19327 whole entry): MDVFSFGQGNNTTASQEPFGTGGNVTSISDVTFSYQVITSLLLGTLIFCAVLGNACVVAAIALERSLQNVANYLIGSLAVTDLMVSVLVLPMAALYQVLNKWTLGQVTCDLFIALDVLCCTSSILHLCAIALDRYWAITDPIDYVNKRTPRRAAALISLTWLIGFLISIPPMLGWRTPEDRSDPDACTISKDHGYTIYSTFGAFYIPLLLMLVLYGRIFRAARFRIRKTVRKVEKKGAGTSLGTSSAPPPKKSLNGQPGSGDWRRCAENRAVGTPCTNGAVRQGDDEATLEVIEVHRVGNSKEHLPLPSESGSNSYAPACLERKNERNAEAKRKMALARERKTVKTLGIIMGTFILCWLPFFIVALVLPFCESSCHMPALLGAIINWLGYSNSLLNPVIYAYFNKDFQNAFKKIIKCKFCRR
Nature of the series: Displacement of [3H]-8-OH-DPAT from 5-HT1AR in rat hippocampus. Type of series: tissue-based.

The subject of series [11] is Rattus norvegicus. Nature of the series: Induction of lower lip retraction in rat assessed as lower lip retraction scores at 10 mg/kg, ip dosed 15 mins before test. Type of series: functional. The conditions noted are these: route intraperitoneal.
Series [12] deals with Mus musculus. Nature of the series: Induction of hypothermia in mouse assessed as change in body temperature at 10 mg/kg, ip administered 30 mins before test and measured 30 mins post dose in presence of 0.3 mg/kg, sc 5HT1A receptor antagonist WAY 100635. It counts as functional, organism-based.
For series [13], the system named is Rattus norvegicus. Nature of the series: Induction of lower lip retraction in rat assessed as lower lip retraction scores at 10 mg/kg, ip dosed 45 mins after 0.3 mg/kg, sc 5HT1A receptor antagonist WAY 100635. Type of series: functional.
The test system of series [14] is Mus musculus. Nature of the series: Induction of hypothermia in mouse assessed as change in body temperature at 10 mg/kg, ip administered 30 mins before test and measured 30 mins post dose. Type of series: functional, organism-based. Details: dose 10 mg/kg.
The test system of series [15] is Mus musculus. Nature of the series: Induction of hypothermia in mouse assessed as change in body temperature at 5 mg/kg, ip administered 30 mins before test and measured 60 mins post dose. The arrangement: dose 5 mg/kg. Type of series: functional, organism-based.
Series [16] relates to Mus musculus. Nature of the series: Induction of hypothermia in mouse assessed as change in body temperature at 5 mg/kg, ip administered 30 mins before test and measured 90 mins post dose. Type of series: functional, organism-based. Details: dose 5 mg/kg.
Series [17] relates to Mus musculus. Nature of the series: Induction of hypothermia in mouse assessed as change in body temperature at 10 mg/kg, ip administered 30 mins before test and measured 60 mins post dose. It counts as functional, organism-based. The arrangement: dose 10 mg/kg.
Series [18] has as its target 5-hydroxytryptamine receptor 7 (Homo sapiens, UniProt P34969). Nature of the series: Displacement of [3H]]-5-CT from human cloned 5-HT7R expressed in HEK293 cells. Type of series: cell-based.
Series [19] relates to Mus musculus. Nature of the series: Induction of hypothermia in mouse assessed as change in body temperature at 10 mg/kg, ip administered 30 mins before test and measured 90 mins post dose. It counts as functional, organism-based. The arrangement: dose 10 mg/kg.
In series [20] the target is 5-hydroxytryptamine receptor 6 (Homo sapiens, UniProt P50406). Nature of the series: Displacement of [3H]LSD from human cloned 5-HT6R expressed in HEK293 cells. Type of series: cell-based.
5-hydroxytryptamine receptor 6, sequence (P50406 whole entry): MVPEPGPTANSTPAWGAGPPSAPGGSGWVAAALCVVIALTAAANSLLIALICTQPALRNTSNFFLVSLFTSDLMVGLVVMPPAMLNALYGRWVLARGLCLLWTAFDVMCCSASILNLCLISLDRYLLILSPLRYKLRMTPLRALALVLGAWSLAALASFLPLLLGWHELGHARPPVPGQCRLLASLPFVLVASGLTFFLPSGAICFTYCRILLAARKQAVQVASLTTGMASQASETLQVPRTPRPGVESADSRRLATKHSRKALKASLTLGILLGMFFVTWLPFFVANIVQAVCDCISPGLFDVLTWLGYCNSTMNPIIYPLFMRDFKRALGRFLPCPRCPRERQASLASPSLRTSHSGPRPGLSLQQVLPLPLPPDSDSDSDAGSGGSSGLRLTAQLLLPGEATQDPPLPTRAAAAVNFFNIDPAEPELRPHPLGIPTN
Series [21] deals with Mus musculus. Nature of the series: Antidepressant-like activity in mouse assessed as reduction in immobility time at 0.625 mg/kg, ip dosed 60 mins before test in presence of 0.3 mg/kg, sc 5HT1A receptor antagonist WAY 100635 by forced swim test. It counts as functional, organism-based.
Series [22] deals with Mus musculus. Nature of the series: Effect on spontaneous locomotor activity in ip dosed mouse during 2 to 6 mins. The conditions noted are these: in vivo. It counts as ADME, organism-based.

5-hydroxytryptamine receptor 7, sequence (P34969 whole entry): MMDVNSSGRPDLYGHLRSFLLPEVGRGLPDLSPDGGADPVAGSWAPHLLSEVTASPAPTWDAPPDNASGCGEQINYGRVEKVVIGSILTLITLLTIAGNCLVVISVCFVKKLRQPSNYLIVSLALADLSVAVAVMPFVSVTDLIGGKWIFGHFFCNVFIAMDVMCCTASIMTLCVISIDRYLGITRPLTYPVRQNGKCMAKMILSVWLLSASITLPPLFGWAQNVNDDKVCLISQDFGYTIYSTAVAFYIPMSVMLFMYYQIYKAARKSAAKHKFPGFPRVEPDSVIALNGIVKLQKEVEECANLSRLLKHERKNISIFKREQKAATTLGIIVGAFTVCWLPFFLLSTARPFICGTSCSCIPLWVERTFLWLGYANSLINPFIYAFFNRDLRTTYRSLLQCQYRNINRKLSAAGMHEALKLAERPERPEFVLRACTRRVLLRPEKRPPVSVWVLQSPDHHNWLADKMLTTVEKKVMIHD

As to `COc1ccccc1N1CCN(CCCCCn2cnc3c2c(=O)n(C)c(=O)n3C)CC1.Cl`, the deltaT in the series on Mus musculus [1] is -1 °C; in the series with Mus musculus [2] it was -1.6 °C; in the series with Mus musculus [4] it was 0.3 °C; in the series on Mus musculus [7] it was -0.4 °C; in the series with Mus musculus [12], -1.8 °C; with Mus musculus [14], -2.1 °C. The deltaT in the series with Mus musculus [15] was -0.2 °C; with Mus musculus [16], 0.3 °C; in the series on Mus musculus [17], -1 °C; with Mus musculus [19], -0.9 °C. Moreover, the Activity was 2.1 with Rattus norvegicus [3]; 35% with Mus musculus [6]; 0.6 in the series on Rattus norvegicus [8]; 30% in the series on Mus musculus [9]; 0.8 in the series on Rattus norvegicus [11]; 0.1 in the series on Rattus norvegicus [13]. Also, the Activity result in the series with Mus musculus [22] is listed as “Non-toxic”. For the same molecule, the Ki (commonly a measure of affinity in units of concentration, obtained from inhibition or displacement) in series [5] is 598 nM; on D(2) dopamine receptor, 33 nM; in series [10], 1 nM; in [18], 294 nM; in [20], 8990 nM. Besides, in the series with Mus musculus [21], the outcome was inactive.
